Data as given in US6737383B1, “Herbicidal oxadiazolidines” (priority 1999, dated 2004).

Assays:
wild poinsettia = experiment: Test C postemergence wild poinsettia; type: in vivo, Euphorbia heterophylla; settings: 0 to 100 scale, 0 no effect, 100 complete control
Procedure, shortened: (§1)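 Visual ratings on a 0 to 100 scale, where 0 means no effect and 100 complete control, were made versus untreated controls roughly 14 to 21 days after postemergence treatment. Test compounds were formulated in a non-phytotoxic solvent mixture containing a surfactant.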

Green foxtail = experiment: Test D green foxtail; type: in vivo; settings: Preemergence, 0 to 100 scale
Procedure, shortened: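 Seeds were sown in greenhouse pots, one species per pot or compartment. Compounds were in a non-phytotoxic solvent mixture with surfactant; preemergence applications went on the sandy loam surface within one day of planting. Injury was rated visually after 14 to 21 days, 0 (none) to 100 (complete control).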

redroot pigweed = experiment: Test C postemergence redroot pigweed; type: in vivo, Amaranthus retroflexus; settings: 0 to 100 scale, 0 no effect, 100 complete control
Procedure, shortened: as §1

cocklebur = experiment: Test C postemergence cocklebur; type: in vivo, Xanthium strumarium; settings: 0 to 100 scale, 0 no effect, 100 complete control
Procedure, shortened: as §1

fall panicum = experiment: Test C postemergence fall panicum; type: in vivo, Panicum dichotomiflorum; settings: 0 to 100 scale, 0 no effect, 100 complete control
Procedure, shortened: as §1

common ragweed = experiment: Test C postemergence common ragweed; type: in vivo, Ambrosia elatior; settings: 0 to 100 scale, 0 no effect, 100 complete control
Procedure, shortened: as §1

surinam grass = experiment: Test C postemergence surinam grass; type: in vivo, Brachiaria decumbens; settings: 0 to 100 scale, 0 no effect, 100 complete control
Procedure, shortened: as §1

barnyardgrass = experiment: Test C postemergence barnyardgrass; type: in vivo, Echinochloa crus-galli; settings: 0 to 100 scale, 0 no effect, 100 complete control
Procedure, shortened: as §1

hairy beggarticks = experiment: Test C postemergence hairy beggarticks; type: in vivo, Bidens pilosa; settings: 0 to 100 scale, 0 no effect, 100 complete control
Procedure, shortened: as §1

velvetleaf = experiment: Test C postemergence velvetleaf; type: in vivo, Abutilon theophrasti; settings: 0 to 100 scale, 0 no effect, 100 complete control
Procedure, shortened: as §1

eastern black nightshade = experiment: Test C postemergence eastern black nightshade; type: in vivo, Solanum ptycanthum; settings: 0 to 100 scale, 0 no effect, 100 complete control
Procedure, shortened: as §1

johnsongrass = experiment: Test C postemergence johnsongrass; type: in vivo, Sorghum halepense; settings: 0 to 100 scale, 0 no effect, 100 complete control
Procedure, shortened: as §1

field bindweed = experiment: Test C postemergence field bindweed; type: in vivo, Convolvulus arvensis; settings: 0 to 100 scale, 0 no effect, 100 complete control
Procedure, shortened: as §1

lambsquarters = experiment: Test C postemergence lambsquarters; type: in vivo, Chenopodium album; settings: 0 to 100 scale, 0 no effect, 100 complete control
Procedure, shortened: as §1

giant foxtail = experiment: Test C postemergence giant foxtail; type: in vivo, Setaria faberii; settings: 0 to 100 scale, 0 no effect, 100 complete control
Procedure, shortened: as §1

CC(C)N(C(=O)n1oc(=O)n(Cc2ccccc2)c1=O)c1ccccc1 [Compound 94]
Plant response rating Wild poinsettia (wild poinsettia; Rate 140 g/ha): 0
Plant response rating Wild poinsettia (wild poinsettia; Rate 280 g/ha): 0
Plant response rating Wild poinsettia (wild poinsettia; Rate 560 g/ha): 60
Plant response rating Wild poinsettia (wild poinsettia; Rate 1120 g/ha): 85
Plant response rating, Green foxtail (Green foxtail; Rate 500 g/ha): 100
Plant response rating, Redroot pigweed (redroot pigweed; Rate 560 g/ha): 0
Plant response rating, Redroot pigweed (redroot pigweed; Rate 1120 g/ha): 0
Plant response rating, Cocklebur (cocklebur; Rate 140 g/ha): 0
Plant response rating, Cocklebur (cocklebur; Rate 280 g/ha): 0
Plant response rating Fall panicum (fall panicum; Rate 140 g/ha): 0
Plant response rating Fall panicum (fall panicum; Rate 280 g/ha): 0
Plant response rating Fall panicum (fall panicum; Rate 560 g/ha): 10
Plant response rating Fall panicum (fall panicum; Rate 1120 g/ha): 70
Plant response rating Common ragweed (common ragweed; Rate 140 g/ha): 0
Plant response rating Common ragweed (common ragweed; Rate 280 g/ha): 0
Plant response rating Common ragweed (common ragweed; Rate 560 g/ha): 5
Plant response rating Common ragweed (common ragweed; Rate 1120 g/ha): 5
Plant response rating Surinam grass (surinam grass; Rate 140 g/ha): 0
Plant response rating Surinam grass (surinam grass; Rate 280 g/ha): 0
Plant response rating Surinam grass (surinam grass; Rate 560 g/ha): 0
Plant response rating Surinam grass (surinam grass; Rate 1120 g/ha): 10
Plant response rating, Barnyardgrass (barnyardgrass; Rate 140 g/ha): 0
Plant response rating, Barnyardgrass (barnyardgrass; Rate 280 g/ha): 0
Plant response rating, Barnyardgrass (barnyardgrass; Rate 560 g/ha): 30
Plant response rating, Barnyardgrass (barnyardgrass; Rate 1120 g/ha): 65
Plant response rating H. beggarticks (hairy beggarticks; Rate 140 g/ha): 0
Plant response rating H. beggarticks (hairy beggarticks; Rate 280 g/ha): 0
Plant response rating H. beggarticks (hairy beggarticks; Rate 560 g/ha): 5
Plant response rating H. beggarticks (hairy beggarticks; Rate 1120 g/ha): 20
Plant response rating, Velvetleaf (velvetleaf; Rate 140 g/ha): 5
Plant response rating, Velvetleaf (velvetleaf; Rate 280 g/ha): 5
Plant response rating, Velvetleaf (velvetleaf; Rate 560 g/ha): 20
Plant response rating, Velvetleaf (velvetleaf; Rate 1120 g/ha): 40
Plant response rating E. blacknightsh (eastern black nightshade; Rate 140 g/ha): 0
Plant response rating E. blacknightsh (eastern black nightshade; Rate 280 g/ha): 40
Plant response rating E. blacknightsh (eastern black nightshade; Rate 560 g/ha): 75
Plant response rating E. blacknightsh (eastern black nightshade; Rate 1120 g/ha): 95
Plant response rating Johnsongrass (johnsongrass; Rate 140 g/ha): 0
Plant response rating Johnsongrass (johnsongrass; Rate 280 g/ha): 0
Plant response rating Johnsongrass (johnsongrass; Rate 560 g/ha): 0
Plant response rating Johnsongrass (johnsongrass; Rate 1120 g/ha): 0
Plant response rating Field bindweed (field bindweed; Rate 140 g/ha): 0
Plant response rating Field bindweed (field bindweed; Rate 280 g/ha): 0
Plant response rating Field bindweed (field bindweed; Rate 560 g/ha): 0
Plant response rating Field bindweed (field bindweed; Rate 1120 g/ha): 0
Plant response rating Lambsquarters (lambsquarters; Rate 140 g/ha): 0
Plant response rating Lambsquarters (lambsquarters; Rate 280 g/ha): 5
Plant response rating Lambsquarters (lambsquarters; Rate 560 g/ha): 10
Plant response rating Lambsquarters (lambsquarters; Rate 1120 g/ha): 30
Plant response rating, Giant foxtail (giant foxtail; Rate 140 g/ha): 0
Plant response rating, Giant foxtail (giant foxtail; Rate 280 g/ha): 0
Plant response rating, Giant foxtail (giant foxtail; Rate 560 g/ha): 10
Plant response rating, Giant foxtail (giant foxtail; Rate 1120 g/ha): 40

CC(C)N(C(=O)n1oc(=O)n(C(C)C)c1=O)c1ccc(F)cc1F [Compound 109]
Plant response rating Wild poinsettia (wild poinsettia; Rate 140 g/ha): 10
Plant response rating Wild poinsettia (wild poinsettia; Rate 280 g/ha): 30
Plant response rating Wild poinsettia (wild poinsettia; Rate 560 g/ha): 50
Plant response rating Wild poinsettia (wild poinsettia; Rate 1120 g/ha): 90
Plant response rating, Green foxtail (Green foxtail; Rate 250 g/ha): 100
Plant response rating, Green foxtail (Green foxtail; Rate 500 g/ha): 100
Plant response rating, Redroot pigweed (redroot pigweed; Rate 140 g/ha): 0
Plant response rating, Redroot pigweed (redroot pigweed; Rate 280 g/ha): 40
Plant response rating, Redroot pigweed (redroot pigweed; Rate 560 g/ha): 70
Plant response rating, Redroot pigweed (redroot pigweed; Rate 1120 g/ha): 85
Plant response rating, Cocklebur (cocklebur; Rate 140 g/ha): 30
Plant response rating, Cocklebur (cocklebur; Rate 280 g/ha): 30
Plant response rating, Cocklebur (cocklebur; Rate 560 g/ha): 60
Plant response rating Fall panicum (fall panicum; Rate 140 g/ha): 50
Plant response rating Fall panicum (fall panicum; Rate 280 g/ha): 50
Plant response rating Fall panicum (fall panicum; Rate 560 g/ha): 80
Plant response rating Fall panicum (fall panicum; Rate 1120 g/ha): 95
Plant response rating Common ragweed (common ragweed; Rate 140 g/ha): 5
Plant response rating Common ragweed (common ragweed; Rate 280 g/ha): 10
Plant response rating Common ragweed (common ragweed; Rate 560 g/ha): 10
Plant response rating Common ragweed (common ragweed; Rate 1120 g/ha): 20
Plant response rating Surinam grass (surinam grass; Rate 140 g/ha): 0
Plant response rating Surinam grass (surinam grass; Rate 280 g/ha): 5
Plant response rating Surinam grass (surinam grass; Rate 560 g/ha): 50
Plant response rating Surinam grass (surinam grass; Rate 1120 g/ha): 95
Plant response rating, Barnyardgrass (barnyardgrass; Rate 140 g/ha): 60
Plant response rating, Barnyardgrass (barnyardgrass; Rate 280 g/ha): 85
Plant response rating, Barnyardgrass (barnyardgrass; Rate 560 g/ha): 85
Plant response rating, Barnyardgrass (barnyardgrass; Rate 1120 g/ha): 95
Plant response rating H. beggarticks (hairy beggarticks; Rate 280 g/ha): 5
Plant response rating H. beggarticks (hairy beggarticks; Rate 560 g/ha): 70
Plant response rating H. beggarticks (hairy beggarticks; Rate 1120 g/ha): 85
Plant response rating, Velvetleaf (velvetleaf; Rate 140 g/ha): 10
Plant response rating, Velvetleaf (velvetleaf; Rate 280 g/ha): 20
Plant response rating, Velvetleaf (velvetleaf; Rate 560 g/ha): 50
Plant response rating, Velvetleaf (velvetleaf; Rate 1120 g/ha): 75
Plant response rating E. blacknightsh (eastern black nightshade; Rate 140 g/ha): 50
Plant response rating E. blacknightsh (eastern black nightshade; Rate 280 g/ha): 80
Plant response rating E. blacknightsh (eastern black nightshade; Rate 1120 g/ha): 95
Plant response rating Johnsongrass (johnsongrass; Rate 140 g/ha): 0
Plant response rating Johnsongrass (johnsongrass; Rate 280 g/ha): 10
Plant response rating Johnsongrass (johnsongrass; Rate 560 g/ha): 60
Plant response rating Johnsongrass (johnsongrass; Rate 1120 g/ha): 95
Plant response rating Field bindweed (field bindweed; Rate 140 g/ha): 0
Plant response rating Field bindweed (field bindweed; Rate 280 g/ha): 0
Plant response rating Field bindweed (field bindweed; Rate 560 g/ha): 10
Plant response rating Field bindweed (field bindweed; Rate 1120 g/ha): 10
Plant response rating Lambsquarters (lambsquarters; Rate 140 g/ha): 10
Plant response rating Lambsquarters (lambsquarters; Rate 280 g/ha): 10
Plant response rating Lambsquarters (lambsquarters; Rate 560 g/ha): 30
Plant response rating Lambsquarters (lambsquarters; Rate 1120 g/ha): 70
Plant response rating, Giant foxtail (giant foxtail; Rate 140 g/ha): 50
Plant response rating, Giant foxtail (giant foxtail; Rate 280 g/ha): 80
Plant response rating, Giant foxtail (giant foxtail; Rate 560 g/ha): 80
Plant response rating, Giant foxtail (giant foxtail; Rate 1120 g/ha): 85
